According to ChEMBL document CHEMBL3217483, “Developing novel non-hydroxamate histone deacetylase inhibitors: the chelidamic warhead” (2012):
Activity calls are given as the source filed them. No cut-off for these calls is given here.

Experiments:
[1] = target: T1, Histone deacetylase (Homo sapiens) (UniProt Q13547+O15379+Q9UBN7+Q92769+Q9UQL6+Q8WUI4+Q9BY41+Q96DB2+P56524+Q9UKV0+Q969S8); experiment: Inhibition of HDAC in human U937 cells assessed as slight increase in histone H3 acetylation at 50 uM after 24 hrs by western blot analysis; format: cell-based; settings: U-937
[2] = target: T1, Histone deacetylase (Homo sapiens); experiment: Inhibition of HDAC in human U937 cells assessed as slight increase in alpha tubulin acetylation at 50 uM after 24 hrs by western blot analysis; format: cell-based; settings: U-937
U-937 [3] = experiment: Cell cycle arrest in human U937 cells assessed as block in S phase at 50 uM after 30 hrs by propidium iodide staining based flow cytometry; format: functional
U-937 [4] = experiment: Induction of granulocytic differentiation in human U937 cells assessed as CD11c positive/propidium iodide negative cells after 30 hrs by FACS analysis; format: functional, cell-based
U-937 [5] = experiment: Induction of granulocytic differentiation in human U937 cells assessed as CD11c positive/propidium iodide negative cells at 50 uM after 30 hrs by FACS analysis; format: functional
[6] = target: T1, Histone deacetylase (Homo sapiens); experiment: Inhibition of HDAC in human U937 cells assessed as increase in histone H3 acetylation at 50 uM after 24 hrs by western blot analysis; format: cell-based; settings: U-937
[7] = target: T1, Histone deacetylase (Homo sapiens); experiment: Inhibition of HDAC in human U937 cells assessed as increase in alpha tubulin acetylation at 50 uM after 24 hrs by western blot analysis; format: cell-based; settings: U-937
U-937 [8] = experiment: Induction of apoptosis in human U937 cells at 50 uM after 30 hrs by caspase 3-7 activation method based FACS analysis; format: functional
U-937 [9] = experiment: Induction of apoptosis in human U937 cells after 30 hrs by caspase 3-7 activation method based FACS analysis; format: functional, cell-based

inhibition [1] | inhibition [2] | inhibition [6] | inhibition [7] | Compound | Activity (U-937 [3]) | Activity (U-937 [4]) | Activity (U-937 [5]) | Activity (U-937 [8]) | Activity (U-937 [9])
inactive | inactive |  |  | COC(=O)c1cc(Oc2ccc(NC(=O)Cc3ccccc3)cc2)cc(C(=O)OC)n1 | Active | Dose-dependent effect | <=40% |  | 
 |  | Active | Active | COC(=O)c1cc(OCCCCSc2nc(-c3ccccc3)cc(=O)[nH]2)cc(C(=O)OC)n1 | <=50% |  |  | <=50% | Dose-dependent effect
inactive | inactive |  |  | COC(=O)c1cc(OCCCCCCOc2ccc(NC(=O)Cc3ccccc3)cc2)cc(C(=O)OC)n1 | Active |  |  |  | 
inactive | inactive |  |  | COC(=O)c1cc(OCCCSc2nc(-c3ccccc3)cc(=O)[nH]2)cc(C(=O)OC)n1 |  |  |  |  | 
inactive | inactive |  |  | COC(=O)c1cc(OCCCCCCCCOc2ccc(NC(=O)Cc3ccccc3)cc2)cc(C(=O)OC)n1 | Active |  |  |  | 
inactive | inactive |  |  | O=C(O)c1cc(OCCSc2nc(-c3ccccc3)cc(=O)[nH]2)cc(C(=O)O)n1 | inactive |  |  |  | 
inactive | inactive |  |  | COC(=O)c1cc(OCc2ccc(NC(=O)Cc3ccccc3)cc2)cc(C(=O)OC)n1 | Active |  |  |  | 
inactive | inactive |  |  | O=C(O)c1cc(OCCCCSc2nc(-c3ccccc3)cc(=O)[nH]2)cc(C(=O)O)n1 | inactive |  |  |  | 
inactive | inactive |  |  | COC(=O)c1cc(OCCCOc2ccc(NC(=O)Cc3ccccc3)cc2)cc(C(=O)OC)n1 | Active |  |  |  | 
inactive | inactive |  |  | COC(=O)c1cc(OCCCCCCCOc2ccc(NC(=O)Cc3ccccc3)cc2)cc(C(=O)OC)n1 | Active |  |  |  | 
 |  | Active | Active | COC(=O)c1cc(OCCSc2nc(-c3ccccc3)cc(=O)[nH]2)cc(C(=O)OC)n1 | <=50% |  |  | <=50% | Dose-dependent effect
inactive | inactive |  |  | COC(=O)c1cc(OCCOc2ccc(NC(=O)Cc3ccccc3)cc2)cc(C(=O)OC)n1 | Active |  |  |  | 
inactive | inactive |  |  | O=C(O)c1cc(OCCCSc2nc(-c3ccccc3)cc(=O)[nH]2)cc(C(=O)O)n1 | inactive |  |  |  | 
 |  | Active | Active | COC(=O)c1cc(OCCCCCSc2nc(-c3ccccc3)cc(=O)[nH]2)cc(C(=O)OC)n1 | <=50% |  |  | <=50% | Dose-dependent effect
inactive | inactive |  |  | COC(=O)c1cc(OCCCCOc2ccc(NC(=O)Cc3ccccc3)cc2)cc(C(=O)OC)n1 | Active |  |  |  | 
inactive | inactive |  |  | COC(=O)c1cc(OCCCCC(=O)Nc2ccccc2)cc(C(=O)OC)n1 | Active |  |  |  | 
inactive | inactive |  |  | COC(=O)c1cc(OCCCCCOc2ccc(NC(=O)Cc3ccccc3)cc2)cc(C(=O)OC)n1 | Active |  |  |  | 
inactive | inactive |  |  | O=C(O)c1cc(OCCCCCSc2nc(-c3ccccc3)cc(=O)[nH]2)cc(C(=O)O)n1 | inactive |  |  |  | 
